Experimental data taken from patent US8217048B2, “Inhibitors of serine proteases, particularly HCV NS3-NS4A protease” (Vertex Pharmaceuticals Incorporated, priority 2003, dated 2012).
Where “and” joins values, the source holds several entries; their conditions need not be identical. Equal entries are not always repeated.

How the values were obtained:
HCV NS3-NS4A protease = target: T1, HCV NS3-NS4A protease (Hepatitis C virus genotype 1a, UniProt P27958); assay: HCV Ki Assay (enzyme, Example 5); format: biochemical; conditions: Ki values, tested according to Example 5 (enzyme); 5AB substrate, tNS3 with KK4A
T1 construct: The buffer, KK4A, DTT, and tNS3 were combined
T1 sequence (P27958 1658-1711): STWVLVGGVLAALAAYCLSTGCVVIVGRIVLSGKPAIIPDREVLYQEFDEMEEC
T1 sequence (P27958 1027-1208): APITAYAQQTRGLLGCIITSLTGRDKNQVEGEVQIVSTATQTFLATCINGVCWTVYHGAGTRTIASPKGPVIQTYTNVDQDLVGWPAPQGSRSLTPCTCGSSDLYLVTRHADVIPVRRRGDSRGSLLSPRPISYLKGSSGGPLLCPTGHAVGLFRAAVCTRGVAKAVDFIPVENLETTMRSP
Protocol: HPLC Microbore Method for Separation of 5AB Substrate and Products
NH2-Glu-Asp-Val-Val-(alpha)Abu-Cys-Ser-Met-Ser-Tyr-COOH
A stock solution of 20 mM 5AB (or concentration of your choice) was made in DMSO w/0.2M DTT. This was stored in aliquots at −20 C.
Buffer: 50 mM HEPES, pH 7.8; 20% glycerol; 100 mM NaCl
Total assay volume was 100 μL
The buffer, KK4A, DTT, and tNS3 were combined; distributed 78 μL each into wells of 96 well plate. This was incubated at 30 C for ˜5-10 min.
2.5 μL of appropriate concentration of test compound was dissolved in DMSO (DMSO only for control) and added to each well. This was incubated at room temperature for 15 min.
Initiated reaction by addition of 20 μL of 250 μM 5AB substrate (25 μM concentration is equivalent or slightly lower than the Km for 5AB).
Incubated for 20 min at 30 C.
Terminated reaction by addition of 25 μL of 10% TFA
Transferred 120 μL aliquots to HPLC vials
Separated SMSY product from substrate and KK4A by the following method:
Microbore Separation Method:
Instrumentation: Agilent 1100
Column thermostated chamber G1316A
Diode array detector G1315A
Solvent A=HPLC grade water+0.1% TFA
Solvent B=HPLC grade acetonitrile+0.1% TFA
Stop time: 17 min Post-run time: 10 min.

[1] = tested on: Cells containing hepatitis C virus (HCV) replicon; assay: HCV Replicon Cell Assay (Example 4); format: cell-based; conditions: 48 h, tested according to Example 4 (cell), 50% inhibition of HCV RNA level, 48-hour incubation
Protocol: HCV Replicon Cell Assay Protocol
Cells containing hepatitis C virus (HCV) replicon were maintained in DMEM containing 10% fetal bovine serum (FBS), 0.25 mg per ml of G418, with appropriate supplements (media A).
On day 1, replicon cell monolayer was treated with a trypsin:EDTA mixture, removed, and then media A was diluted into a final concentration of 100,000 cells per ml wit. 10,000 cells in 100 ul were plated into each well of a 96-well tissue culture plate, and cultured overnight in a tissue culture incubator at 37° C.
On day 2, compounds (in 100% DMSO) were serially diluted into DMEM containing 2% FBS, 0.5% DMSO, with appropriate supplements (media B). The final concentration of DMSO was maintained at 0.5% throughout the dilution series.
Media on the replicon cell monolayer was removed, and then media B containing various concentrations of compounds was added. Media B without any compound was added to other wells as no compound controls.
Cells were incubated with compound or 0.5% DMSO in media B for 48 hours in a tissue culture incubator at 37° C. At the end of the 48-hour incubation, the media was removed, and the replicon cell monolayer was washed once with PBS and stored at −80° C. prior to RNA extraction.
Culture plates with treated replicon cell monolayers were thawed, and a fixed amount of another RNA virus, such as Bovine Viral Diarrhea Virus (BVDV) was added to cells in each well, RNA extraction reagents (such as reagents from RNeasy kits) were added to the cells immediately to avoid degradation of RNA. Total RNA was extracted according the instruction of manufacturer with modification to improve extraction efficiency and consistency. Finally, total cellular RNA, including HCV replicon RNA, was eluted and stored at −80° C. until further processing.
A Taqman real-time RT-PCR quantification assay was set up with two sets of specific primers and probe. One was for HCV and the other was for BVDV. Total RNA extractants from treated HCV replicon cells was added to the PCR reactions for quantification of both HCV and BVDV RNA in the same PCR well. Experimental failure was flagged and rejected based on the level of BVDV RNA in each well. The level of HCV RNA in each well was calculated according to a standard curve run in the same PCR plate. The percentage of inhibition or decrease of HCV RNA level due to compound treatment was calculated using the DMSO or no compound control as 0% of inhibition. The IC50 (concentration at which 50% inhibition of HCV RNA level is observed) was calculated from the titration curve of any given compound.

SMILES	Ki (HCV NS3-NS4A protease)	IC50 [1] [nM]
CCC[C@H](NC(=O)[C@@H]1C[C@@H](Oc2ccc(Cl)cn2)CN1C(=O)[C@@H](NC(=O)[C@@H](NC(=O)c1cnccn1)C1CCCCC1)C(C)(C)C)C(=O)C(=O)CC(C)C [Compound 75]	> 300 nM	
CCC[C@H](NC(=O)[C@@H]1C[C@@H](Oc2cccc(OC(F)(F)F)c2)CN1C(=O)[C@@H](NC(=O)[C@@H](NC(=O)c1cnccn1)C1CCCCC1)C(C)(C)C)C(=O)C(=O)NC1CC1 [Compound 16]	100 to 300 nM	500 to 1000
CCC[C@H](NC(=O)C1C[C@@H](Oc2c(F)cccc2F)CN1C(=O)[C@@H](NC(=O)[C@@H](NC(=O)c1cnccn1)C1CCCCC1)C(C)(C)C)C(=O)C(=O)NC1CC1 (some centres unmarked) [Compound 10]	100 to 300 nM	500 to 1000
CCC[C@H](NC(=O)[C@@H]1C[C@@H](Oc2cc(OC)cc(OC)c2)CN1C(=O)[C@@H](NC(=O)[C@@H](NC(=O)c1cnccn1)C1CCCCC1)C(C)(C)C)C(=O)C(=O)NC1CC1 [Compound 24]	< 100 nM	< 500
CCC[C@H](NC(=O)[C@@H]1C[C@@H](Oc2ccc(NC(C)=O)cc2)CN1C(=O)[C@@H](NC(=O)[C@@H](NC(=O)c1cnccn1)C1CCCCC1)C(C)(C)C)C(=O)C(=O)NC1CC1 [Compound 51]	< 100 nM	> 1000
CCC[C@H](NC(=O)[C@@H]1C[C@@H](Oc2ccc(CC#N)cc2)CN1C(=O)[C@@H](NC(=O)[C@@H](NC(=O)c1cnccn1)C1CCCCC1)C(C)(C)C)C(=O)C(=O)NC1CC1 [Compound 65]	100 to 300 nM	< 500
CCC[C@H](NC(=O)[C@@H]1C[C@@H](Oc2cccc3ccccc23)CN1C(=O)[C@@H](NC(=O)[C@@H](NC(=O)c1ncc[nH]1)C1CCCCC1)C(C)(C)C)C(=O)C(=O)NC1CC1 [Compound 37]	< 100 nM	
CCC[C@H](NC(=O)[C@@H]1C[C@@H](Oc2ccc(C(=O)OC(C)C)cc2)CN1C(=O)[C@@H](NC(=O)[C@@H](NC(=O)c1cnccn1)C1CCCCC1)C(C)(C)C)C(=O)C(=O)NC1CC1 [Compound 61]	< 100 nM	< 500
C=CCCC(=O)C(=O)[C@H](CCC)NC(=O)[C@@H]1C[C@@H](Oc2ccc(Cl)cn2)CN1C(=O)[C@@H](NC(=O)[C@@H](NC(=O)c1cnccn1)C1CCCCC1)C(C)(C)C [Compound 76]	100 to 300 nM and > 300 nM	
CCCC(NC(=O)C1CC(Oc2cccc(Cl)c2Cl)CN1C(=O)C(NC(=O)C(NC(=O)c1cnccn1)C1CCCCC1)C(C)(C)C)C(=O)C(=O)NC1CC1 (centres unmarked) [Compound 5]	100 to 300 nM	500 to 1000
CCC[C@H](NC(=O)C1C[C@@H](Oc2ccccc2OC(F)(F)F)CN1C(=O)[C@@H](NC(=O)[C@@H](NC(=O)c1cnccn1)C1CCCCC1)C(C)(C)C)C(=O)C(=O)NC1CC1 (some centres unmarked) [Compound 9]	> 300 nM	
CCC[C@H](NC(=O)[C@@H]1C[C@@H](Oc2ccc(C(=O)N3CCNCC3)cc2)CN1C(=O)[C@@H](NC(=O)[C@@H](NC(=O)c1cnccn1)C1CCCCC1)C(C)(C)C)C(=O)C(=O)NC1CC1 [Compound 71]	100 to 300 nM	> 1000
CCC[C@H](NC(=O)[C@@H]1C[C@@H](Oc2ccc(C(=O)N3CCN(C(=O)OCc4ccccc4)CC3)cc2)CN1C(=O)[C@@H](NC(=O)[C@@H](NC(=O)c1cnccn1)C1CCCCC1)C(C)(C)C)C(=O)C(=O)NC1CC1 [Compound 70]	100 to 300 nM	500 to 1000
CCC[C@H](NC(=O)[C@@H]1C[C@@H](Oc2cc(F)cc(F)c2)CN1C(=O)[C@@H](NC(=O)[C@@H](NC(=O)c1cnccn1)C1CCCCC1)C(C)(C)C)C(=O)C(=O)NC1CC1 [Compound 55]	100 to 300 nM	< 500
CCC[C@H](NC(=O)[C@@H]1C[C@@H](Oc2cccc(C(F)(F)F)c2)CN1C(=O)[C@@H](NC(=O)[C@@H](NC(=O)c1cnccn1)C1CCCCC1)C(C)(C)C)C(=O)C(=O)NC1CC1 [Compound 22]	100 to 300 nM	< 500
CCC[C@H](NC(=O)[C@@H]1C[C@@H](Oc2ccnc3cc(OC)ccc23)CN1C(=O)[C@@H](NC(=O)[C@@H](NC(=O)c1cnccn1)C1CCCCC1)C(C)(C)C)C(=O)C(=O)NC1CC1 [Compound 41]	< 100 nM	> 1000

SMILES	Ki (HCV NS3-NS4A protease)	IC50 [1] [nM]
CCC[C@H](NC(=O)[C@@H]1C[C@@H](Oc2ccnc3cc(C(F)(F)F)ccc23)CN1C(=O)[C@@H](NC(=O)[C@@H](NC(=O)c1cnccn1)C1CCCCC1)C(C)(C)C)C(=O)C(=O)NC1CC1 [Compound 67]	< 100 nM	< 500
CCC[C@H](NC(=O)[C@@H]1C[C@@H](Oc2ccc(Cl)cn2)CN1C(=O)[C@@H](NC(=O)[C@@H](NC(=O)[C@H](C)NC(=O)OC)C1CCCCC1)C(C)(C)C)C(=O)C(=O)NC1CC1 [Compound 69]	< 100 nM	
CCCC(NC(=O)[C@H]1C[C@H](Oc2cc(C(F)(F)F)ncn2)CN1C(=O)C(NC(=O)C(NC(=O)c1cnccn1)C1CCCCC1)C(C)(C)C)C(=O)C(=O)NC1CC1 (some centres unmarked) [Compound 30]	100 to 300 nM	
CCCC(NC(=O)[C@H]1C[C@H](Oc2ncncc2F)CN1C(=O)C(NC(=O)C(NC(=O)c1cnccn1)C1CCCCC1)C(C)(C)C)C(=O)C(=O)NC1CC1 (some centres unmarked) [Compound 32]	< 100 nM	
CCCC(NC(=O)[C@H]1C[C@H](Oc2ccc(C(F)(F)F)cn2)CN1C(=O)C(NC(=O)C(NC(=O)c1cnccn1)C1CCCCC1)C(C)(C)C)C(=O)C(=O)NC1CC1 (some centres unmarked) [Compound 27]	> 300 nM	
CCC[C@H](NC(=O)[C@@H]1C[C@@H](Oc2cccc(OC)c2)CN1C(=O)[C@@H](NC(=O)[C@@H](NC(=O)c1cnccn1)C1CCCCC1)C(C)(C)C)C(=O)C(=O)NC1CC1 [Compound 21]	> 300 nM	
CCCC(NC(=O)[C@H]1C[C@H](Oc2ccnc(C(F)(F)F)n2)CN1C(=O)C(NC(=O)C(NC(=O)c1cnccn1)C1CCCCC1)C(C)(C)C)C(=O)C(=O)NC1CC1 (some centres unmarked) [Compound 29]	> 300 nM	
CCC[C@H](NC(=O)[C@@H]1C[C@@H](Oc2cccc(Cl)n2)CN1C(=O)[C@@H](NC(=O)[C@@H](NC(=O)c1cnccn1)C1CCCCC1)C(C)(C)C)C(=O)C(=O)NC1CC1 [Compound 25]	100 to 300 nM	
CCCC(NC(=O)[C@H]1C[C@H](Oc2ncccc2[N+](=O)[O-])CN1C(=O)C(NC(=O)C(NC(=O)c1cnccn1)C1CCCCC1)C(C)(C)C)C(=O)C(=O)NC1CC1 (some centres unmarked) [Compound 33]	100 to 300 nM	
CCCC(NC(=O)[C@H]1C[C@H](Oc2ccc(-c3ccccc3)nn2)CN1C(=O)C(NC(=O)C(NC(=O)c1cnccn1)C1CCCCC1)C(C)(C)C)C(=O)C(=O)NC1CC1 (some centres unmarked) [Compound 28]	> 300 nM	
CCC[C@H](NC(=O)[C@@H]1C[C@@H](Oc2ccccc2-c2ccccc2)CN1C(=O)[C@@H](NC(=O)[C@@H](NC(=O)c1cnccn1)C1CCCCC1)C(C)(C)C)C(=O)C(=O)NC1CC1 [Compound 17]	> 300 nM	
CCC[C@H](NC(=O)[C@@H]1C[C@@H](Oc2cccc(OC)c2OC)CN1C(=O)[C@@H](NC(=O)[C@@H](NC(=O)c1cnccn1)C1CCCCC1)C(C)(C)C)C(=O)C(=O)NC1CC1 [Compound 23]	100 to 300 nM	
CCC[C@H](NC(=O)[C@@H]1C[C@@H](Oc2ccc(C(=O)OC)cc2)CN1C(=O)[C@@H](NC(=O)[C@@H](NC(=O)c1cnccn1)C1CCCCC1)C(C)(C)C)C(=O)C(=O)NC1CC1 [Compound 52]	< 100 nM	
CCCC(NC(=O)[C@H]1C[C@H](Oc2nccc(-c3ccccc3)c2C#N)CN1C(=O)C(NC(=O)C(NC(=O)c1cnccn1)C1CCCCC1)C(C)(C)C)C(=O)C(=O)NC1CC1 (some centres unmarked) [Compound 31]	100 to 300 nM	
CCCC(NC(=O)[C@H]1C[C@H](Oc2nccc(C(F)(F)F)n2)CN1C(=O)C(NC(=O)C(NC(=O)c1cnccn1)C1CCCCC1)C(C)(C)C)C(=O)C(=O)NC1CC1 (some centres unmarked) [Compound 74]	> 300 nM	
